Measurements as given in US20250084033A1, “METHOD OF PROMOTING PERACETIC ACID DECOMPOSITION USING METAL COMPOUND, AND METHOD OF CULTURING MICROORGANISMS USING SAME” (N-CELL CO.,LTD, priority 2022, published 2025).
Read-outs that look alike come from different tables or passages of the source.

Legend:
[1] = system: Euglena gracilis; details: for absorbance of the Euglena gracilis culture solution: 680 nm; for effect on growth of Euglena gracilis (in words): acetic acid or sodium acetate 0.05-0.25% (w/v) in nutrient medium
Procedure: A nutrient medium for the cultivation of Euglena gracilis (prepared with triple-distilled water, KH2PO4, citrate, MgSO4·3H2O, vitamin B1, vitamin B6, vitamin B12, vitamin H, yeast extract, peptone, and dextrose) was autoclaved at 121° C. for 15 minutes. Sodium acetate (CH3COONa) was then added to the prepared nutrient medium at a concentration of 0.05% (w/v), and an inoculum of Euglena gracilis (KCTC AG40099) was introduced. The culture was incubated at 130 rpm, 28° C., and under light conditions of 100 μE photons/m^2/s. Growth was measured by monitoring absorbance at a wavelength of 680 nm.
The experiment was conducted in the same manner as in Example 11, except that acetic acid was added instead of sodium acetate.
The experiment was conducted in the same manner as in Comparative Example 2,except that acetic acid was added to the prepared nutrient medium at concentrations of 0.1% (w/v) (Comparative Example 3), 0.15% (w/v) (Comparative Example 4), 0.2% (w/v) (Comparative Example 5), and 0.25% (w/v) (Comparative Example 6), instead of sodium acetate.

[2] = system: Euglena gracilis; test: Growth of Euglena gracilis in peracetic acid-treated medium with sodium bicarbonate (absorbance 680 nm); format: cell-based; details: PAA 0.05% (w/v) with or without sodium bicarbonate 0.05-0.3% (w/v)
Procedure: The growth of Euglena was measured by monitoring absorbance at a wavelength of 680 nm.

[3] = Table 3, acetic acid added, cultivation time 0 Day
[4] = Table 3, acetic acid added, cultivation time 1 Day
[5] = Table 4, sodium acetate added, cultivation time 0 Day
[6] = Table 4, sodium acetate added, cultivation time 1 Day
[7] = Table 4, sodium acetate added, cultivation time 2 Days
[8] = Table 4, sodium acetate added, cultivation time 4 Days
[9] = Table 4, sodium acetate added, cultivation time 5 Days

SMILES	absorbance of the Euglena gracilis culture solution [1, 3] [AU]	absorbance of the Euglena gracilis culture solution [1, 4] [AU]	absorbance of the Euglena gracilis culture solution [1, 5] [AU]	absorbance of the Euglena gracilis culture solution [1, 6] [AU]	absorbance of the Euglena gracilis culture solution [1, 7] [AU]	absorbance of the Euglena gracilis culture solution [1, 8] [AU]	absorbance of the Euglena gracilis culture solution [1, 9] [AU]	other results
CC(=O)O [Comparative Example 2, acetic acid]	1.3738	2.1945						absorbance of the Euglena gracilis culture solution ([1]; Table 3, acetic acid added, cultivation time 2 Days): 3.929 AU; absorbance of the Euglena gracilis culture solution ([1]; Table 3, acetic acid added, cultivation time 4 Days): 10.34 AU; absorbance of the Euglena gracilis culture solution ([1]; Table 3, acetic acid added, cultivation time 5 Days): 11.063 AU; effect on growth of Euglena gracilis (in words) [1]: no inhibitory effect
CC(=O)O [Comparative Example 3, acetic acid]	1.8372	1.712						
CC(=O)O [Comparative Example 4, acetic acid]	1.831	1.598						
CC(=O)O [Comparative Example 5, acetic acid]	1.686	1.5025						
CC(=O)O [Comparative Example 6, acetic acid]	1.7554	1.5195						
CC(=O)[O-].[Na+] [Example 11, sodium acetate]			1.33	2.2345	3.898	8.511	9.852	
CC(=O)[O-].[Na+] [Example 12, sodium acetate]			1.316	2.1825	3.969	7.739	8.442	
CC(=O)[O-].[Na+] [Example 13, sodium acetate]			1.3882	2.1605	3.861	7.52	8.561	
CC(=O)[O-].[Na+] [Example 14, sodium acetate]			1.3602	2.1565	3.709	7.624	8.665	
CC(=O)[O-].[Na+] [Example 15, sodium acetate]			1.4034	2.1945	3.803	7.369	8.405	
CC(=O)[O-].[Na+] [sodium acetate]								effect on growth of Euglena gracilis (in words) [1]: does not inhibit the growth of Euglena
O=C([O-])O.[Na+] [sodium bicarbonate]								growth of Euglena gracilis (in words) [2]: does not specifically affect the growth of Euglena gracilis
